One data set deals with tubulin. Put plainly: Fluorescence-based microtubule polymerisation assay. Type of data set: biochemical. The conditions noted are these: rate at 1 μM MMAF set at 100%. The method, then:
Tubulin polymerization was investigated using the “Fluorescence-based Microtubule Polymerisation Assay Kit” from Cytoskeleton (Denver, Colo., USA; order number: BK011). With this assay, GTP is added to unpolymerized tubulin, allowing polymerization to take place spontaneously. The assay is based on the binding of the fluorophore 4′,6-diamidino-2-phenylindole (DAPI) to tubulin. Free and bound DAPI can be differentiated on the basis of different emission spectra.
In addition to the buffer control, paclitaxel, with a polymerization-increasing effect, and vinblastin, with a polymerization inhibiting effect, were run additionally as assay controls. Measurement was carried out using 96-well plates with a half base area. The kinetics of the tubulin polymerization were monitored in a Fluorimeter at 37° C. for 1 hour. The excitation wavelength was 355 nm, and emission was monitored at 460 nm. For the region of linear increase within the first 10 minutes, a calculation was made of the change in fluorescence per minute (ΔF/min), which represents the polymerization rate of the microtubuli. The potency of the test substances was quantified on the basis of their respective reduction of the polymerization rate. Table 6 below gives data for the influence of representative working examples on tubulin polymerization.

Data set [1] in a line: Flux assay using Caco-2 cells (cell permeability). In kind it is in vitro ADME. The conditions noted are these: human, 2 hours incubation. Here is the method:
(§1) The cell permeability of a substance can be investigated by means of in vitro testing in a flux assay using Caco-2 cells [M. D. Troutman and D. R. Thakker, Pharm. Res. 20 (8), 1210-1224 (2003)]. For this purpose, the cells were cultured for 15-16 days on 24-well filter plates. For the determination of permeation, the respective working example was applied in a HEPES buffer to the cells either apically (A) or basally (B) and incubated for 2 hours. After 0 hours and after 2 hours, samples were taken from the cis and trans compartments. The samples were separated by HPLC (Agilent 1200, Böblingen, Germany) using reverse phase columns. The HPLC system was coupled via a Turbo Ion Spray Interface to a Triple Quadropol mass spectrometer API 4000 (Applied Biosystems Applera, Darmstadt, Germany). The permeability was evaluated on the basis of a Papp value, which was calculated using the formula published by Schwab et al. [D. Schwab et al., J. Med. Chem. 46, 1716-1725 (2003)].

In a further data set the test system is Caco-2 cells. Put plainly: Flux assay using Caco-2 cells (cell permeability). In kind it is in vitro ADME. The conditions noted are these: 2 hours incubation. The method, then:
as §1
Background: Caco-2 monolayers are a common model of the intestinal barrier.

Where a name gives a salt, the structure may show the parent alone. Where a SMILES comes first, the peptide text is derived from it. [ ]: non-standard residue; d: D form. The star is where a group is joined. X2 = CC(C)[C@@H](C(=O)*)N(C)CCCCCCN1C(=O)CC(SC[C@H](N)C(=O)O)C1=O; X3 = CC(C)[C@@H](C(=O)*)N(C)CCOCCOCCOCCC(=O)NCCCC[C@H](N)C(=O)O; X1 = CC(C)[C@@H](C(=O)*)N(C)CCCCCC(=O)NCCCC[C@H](N)C(=O)O; Dolaproine = CO[C@@H]([C@@H]1CCCN1)[C@@H](C)C(=O)O; Dil = CC[C@H](C)[C@H](NC)[C@@H](CC(=O)O)OC; X4 = C[C@@H](N*)[C@@H](O)c1ccccc1; Oxazinan2yl(1,2) = C1CCN(*)OC1; NMeV = CN[C@H](C(=O)O)C(C)C

The Papp B→A is how fast a substance crosses the layer from the basolateral side. With `CC[C@H](C)[C@@H]([C@@H](CC(=O)N1CCC[C@H]1[C@H](OC)[C@@H](C)C(=O)N[C@@H](Cc1c[nH]c2ccccc12)C(=O)N1CCCCO1)OC)N(C)C(=O)[C@@H](NC(=O)[C@H](C(C)C)N(C)CCCCCC(=O)NCCCC[C@H](N)C(=O)O)C(C)C` [Example 18, N-(6-{[(5S)-5-Amino-5-carboxypentyl]amino}-6-oxohexyl)-N-methyl-L-valyl-N-[(3R,4S,5S)-1-{(2S)-2-[(1R,2R)-3-{[(2S)-3-(1H-indol-3-yl)-1-(1,2-oxazinan-2-yl)-1-oxopropan-2-yl]amino}-1-methoxy-2-methyl-3-oxopropyl]pyrrolidin-1-yl}-3-methoxy-5-methyl-1-oxoheptan-4-yl]-N-methyl-L-valinamide trifluoroacetate] (X1-V[Dil][Dolaproine]W-{Oxazinan2yl(1,2)}), the “Tubulin polymerization in the presence of toxophore” value (“Tubulin polymerization” below) with tubulin (toxophore 1 μM) worked out at 45%; with tubulin (toxophore 10 μM) it was 1%. For the same molecule, in data set [1], the Papp B→A at 2 h was found to be 0.2 ×10⁻⁶ cm/s.

With `CC[C@H](C)[C@@H]([C@@H](CC(=O)N1CCC[C@H]1[C@H](OC)[C@@H](C)C(=O)N[C@@H](Cc1c[nH]c2ccccc12)C(=O)O)OC)N(C)C(=O)[C@@H](NC(=O)[C@H](C(C)C)N(C)CCCCCC(=O)NCCCC[C@H](N)C(=O)O)C(C)C` [Example 19, N-(6-{[(5S)-5-Amino-5-carboxypentyl]amino}-6-oxohexyl)-N-methyl-L-valyl-N-[(3R,4S,5S)-1-{(2S)-2-[(1R,2R)-3-{[(1S)-1-carboxy-2-(1H-indol-3-yl)ethyl]amino}-1-methoxy-2-methyl-3-oxopropyl]pyrrolidin-1-yl}-3-methoxy-5-methyl-1-oxoheptan-4-yl]-N-methyl-L-valinamide] (X1-V[Dil][Dolaproine]W-OH), the “Tubulin polymerization” value was found to be 80% with tubulin (toxophore 1 μM) and 14% in the data set on tubulin (toxophore 10 μM). Moreover, in data set [1], the Papp B→A at 2 h amounted to 0.1 ×10⁻⁶ cm/s.

As for `CC[C@H](C)[C@@H]([C@@H](CC(=O)N1CCC[C@H]1[C@H](OC)[C@@H](C)C(=O)N[C@@H](Cc1c[nH]c2ccccc12)C(=O)N1CCCCO1)OC)N(C)C(=O)[C@@H](NC(=O)[C@H](C(C)C)N(C)CCOCCOCCOCCC(=O)NCCCC[C@H](N)C(=O)O)C(C)C` [Example 20, N-[(18S)-18-Amino-18-carboxy-12-oxo-3,6,9-trioxa-13-azaoctadec-1-yl]-N-methyl-L-valyl-N-[(3R,4S,5S)-1-{(2S)-2-[(1R,2R)-3-{[(2S)-3-(1H-indol-3-yl)-1-(1,2-oxazinan-2-yl)-1-oxopropan-2-yl]amino}-1-methoxy-2-methyl-3-oxopropyl]pyrrolidin-1-yl}-3-methoxy-5-methyl-1-oxoheptan-4-yl]-N-methyl-L-valinamide trifluoroacetate] (X3-V[Dil][Dolaproine]W-{Oxazinan2yl(1,2)}), the “Tubulin polymerization” value stood at 60% in the data set with tubulin (toxophore 1 μM) and 0% in the data set with tubulin (toxophore 10 μM).

For the molecule `CC[C@H](C)[C@@H]([C@@H](CC(=O)N1CCC[C@H]1[C@H](OC)[C@@H](C)C(=O)N[C@@H](Cc1c[nH]c2ccccc12)C(N)=O)OC)N(C)C(=O)[C@@H](NC(=O)[C@H](C(C)C)N(C)CCCC(=O)NNC(=O)CCCCCN1C(=O)CC(SC[C@H](N)C(=O)O)C1=O)C(C)C` (stereo partly drawn) [Example 21, N-(4-{2-[6-(3-{[(2R)-2-Amino-2-carboxyethyl]sulphanyl}-2,5-dioxopyrrolidin-1-yl)hexanoyl]hydrazino}-4-oxobutyl)-N-methyl-L-valyl-N-[(3R,4S,5S)-1-{(2S)-2-[(1R,2R)-3-{[(2S)-1-amino-3-(1H-indol-3-yl)-1-oxopropan-2-yl]amino}-1-methoxy-2-methyl-3-oxopropyl]pyrrolidin-1-yl}-3-methoxy-5-methyl-1-oxoheptan-4-yl]-N-methyl-L-valinamide], the “Tubulin polymerization” value is on record as 88% in the data set with tubulin (toxophore 1 μM) and 25% in the data set on tubulin (toxophore 10 μM). Moreover, the basolateral-to-apical permeability (Papp B→A) at 2 h in data set [1] amounted to 0.2 ×10⁻⁶ cm/s.

In data set [1], `CC[C@H](C)[C@@H]([C@@H](CC(=O)N1CCC[C@H]1[C@H](OC)[C@@H](C)C(=O)N[C@@H](Cc1c[nH]c2ccccc12)C(=O)O)OC)N(C)C(=O)[C@@H](NC(=O)[C@H](C(C)C)N(C)CCCCCCN1C(=O)CC(SC[C@H](N)C(=O)O)C1=O)C(C)C` (stereo partly drawn) [Example 23, N-[6-(3-{[(2R)-2-Amino-2-carboxyethyl]sulphanyl}-2,5-dioxopyrrolidin-1-yl)hexyl]-N-methyl-L-valyl-N-[(3R,4S,5S)-1-{(2S)-2-[(1R,2R)-3-{[(1S)-1-carboxy-2-(1H-indol-3-yl)ethyl]amino}-1-methoxy-2-methyl-3-oxopropyl]pyrrolidin-1-yl}-3-methoxy-5-methyl-1-oxoheptan-4-yl]-N-methyl-L-valinamide] (X2-V[Dil][Dolaproine]W-OH) came in with a Papp B→A at 2 h of 0.1 ×10⁻⁶ cm/s.

As to `CC[C@H](C)[C@@H]([C@@H](CC(=O)N1CCC[C@H]1[C@H](OC)[C@@H](C)C(=O)N[C@@H](Cc1c[nH]c2ccccc12)C(=O)N1CCCCO1)OC)N(C)C(=O)[C@@H](NC(=O)[C@H](C(C)C)N(C)CCCCCCN1C(=O)CC(SC[C@H](N)C(=O)O)C1=O)C(C)C` (stereo partly drawn) [Example 24, N-[6-(3-{[(2R)-2-Amino-2-carboxyethyl]sulphanyl}-2,5-dioxopyrrolidin-1-yl)hexyl]-N-methyl-L-valyl-N-[(3R,4S,5S)-1-{(2S)-2-[(1R,2R)-3-{[(2S)-3-(1H-indol-3-yl)-1-(1,2-oxazinan-2-yl)-1-oxopropan-2-yl]amino}-1-methoxy-2-methyl-3-oxopropyl]pyrrolidin-1-yl}-3-methoxy-5-methyl-1-oxoheptan-4-yl]-N-methyl-L-valinamide] (X2-V[Dil][Dolaproine]W-{Oxazinan2yl(1,2)}), the “Tubulin polymerization” value with tubulin (toxophore 1 μM) came to 121%; in the data set with tubulin (toxophore 10 μM), 35%.

Consider `CC[C@H](C)[C@@H]([C@@H](CC(=O)N1CCC[C@H]1[C@H](OC)[C@@H](C)C(=O)N[C@@H](Cc1ccc(O)cc1)C(=O)N1CCCCO1)OC)N(C)C(=O)[C@@H](NC(=O)[C@H](C(C)C)N(C)CCCCCC(=O)NCCCC[C@H](N)C(=O)O)C(C)C` [Example 36, N-(6-{[(5S)-5-Amino-5-carboxypentyl]amino}-6-oxohexyl)-N-methyl-L-valyl-N-[(3R,4S,5S)-1-{(2S)-2-[(1R,2R)-3-{[(2S)-3-(4-hydroxyphenyl)-1-(1,2-oxazinan-2-yl)-1-oxopropan-2-yl]amino}-1-methoxy-2-methyl-3-oxopropyl]pyrrolidin-1-yl}-3-methoxy-5-methyl-1-oxoheptan-4-yl]-N-methyl-L-valinamide trifluoroacetate] (X1-V[Dil][Dolaproine]Y-{Oxazinan2yl(1,2)}), for which the Papp B→A at 2 h in data set [1] came to 0.15 ×10⁻⁶ cm/s.

Molecule `CC[C@H](C)[C@@H]([C@@H](CC(=O)N1CCC[C@H]1[C@H](OC)[C@@H](C)C(=O)N[C@@H](Cc1ccc(O)cc1)C(=O)O)OC)N(C)C(=O)[C@@H](NC(=O)[C@H](C(C)C)N(C)CCCCCC(=O)NCCCC[C@H](N)C(=O)O)C(C)C` [Example 37, N-(6-{[(5S)-5-Amino-5-carboxypentyl]amino}-6-oxohexyl)-N-methyl-L-valyl-N-[(3R,4S,5S)-1-{(2S)-2-[(1R,2R)-3-{[(1S)-1-carboxy-2-(4-hydroxyphenyl)ethyl]amino}-1-methoxy-2-methyl-3-oxopropyl]pyrrolidin-1-yl}-3-methoxy-5-methyl-1-oxoheptan-4-yl]-N-methyl-L-valinamide trifluoroacetate] (X1-V[Dil][Dolaproine]Y-OH) gave a Papp B→A at 2 h in data set [1] of 0.09 ×10⁻⁶ cm/s.

For `CC[C@H](C)[C@@H]([C@@H](CC(=O)N1CCC[C@H]1[C@H](OC)[C@@H](C)C(=O)N[C@H](C)[C@@H](O)c1ccccc1)OC)N(C)C(=O)[C@@H](NC(=O)[C@@H](NC)C(C)C)C(C)C` [monomethylauristatin E (MMAE), monomethylauristatin E, reference compound] (H-[NMeV]V[Dil][Dolaproine]-X4), in the data set on Caco-2 cells, the “Papp (B-A)” value is 7.3 ×10⁻⁶ cm/s.

With `CC[C@H](C)[C@@H]([C@@H](CC(=O)N1CCC[C@H]1[C@H](OC)[C@@H](C)C(=O)N[C@@H](Cc1ccccc1)C(=O)O)OC)N(C)C(=O)[C@@H](NC(=O)[C@@H](NC)C(C)C)C(C)C` [monomethylauristatin F (MMAF), monomethylauristatin F, reference compound] (H-[NMeV]V[Dil][Dolaproine]F-OH), the results for the “Tubulin polymerization” value with tubulin (toxophore 1 μM) and in the data set on tubulin (toxophore 10 μM) were 100% and 34%, respectively. Besides, the “Papp (B-A)” value in the data set on Caco-2 cells worked out at 7.3 ×10⁻⁶ cm/s.
